# Experimental data from patent US9011915B2, “Conveniently implantable sustained release drug compositions” (Ramscor, Inc., priority 2004, dated 2015).
# Where two headings read alike, the source gives them in different places.
# Assays:
# [1] = continuously exceeded over an extended period of time; cited from earlier work
# [2] = 3:1 dexamethasone:ciprofloxacin in benzyl benzoate
# Method: The vials for the release studies were labeled and the weight of each vial was recorded. To each vial was added 3-4 grams of 0.9% saline solution and the weight was recorded. Then the SRF was injected or placed at the bottom of the vial. The weight of the SRF was recorded. An additional amount of 0.9% saline solution was added to a total of 10 grams of saline. The resulting vial was kept in an incubator or water bath at 37° C. Samples were taken periodically to measure the release profile of dexamethasone or triamcinolone acetonide using a HPLC instrument. Sampling protocol was carried out according to the following procedure: Using a disposable pipette, 8 grams of the saline solution containing dexamethasone or triamcinolone acetonide was withdrawn carefully from each vial. 8 grams of 0.9% saline solution was then added to each vial. The vials were kept at 37° C. after sampling.
# The HPLC analysis was carried out using a Beckman Gold Instrument with an autosampler. […] Calibrators and samples were injected onto a C18 column (Rainin, 250×4.6 mm) containing a guard column (C18, 4.6 mm×1 cm) and analyzed, respectively. […] The dexamethasone or triamcinolone acetonide (retention times, 6-4 minutes) concentration of each sample was calculated from the standard curve using the software of the Beckman Gold instrument.
# [3] = In vivo release of dexamethasone from 25% dexamethasone in benzyl benzoate (DB) injected into posterior segment, vitreous humor HPLC; parameters: species or system rabbit; settings: for mean vitreous level of dexamethasone: 25% formulation in benzyl benzoate
# Method: Benzyl benzoate (BB) served as placebo.
# The in vivo release of the DB composition was studied in twenty-four rabbits. Twenty-five μl of 25% DB was injected into the posterior segment of one eye of twelve animals and the contralateral eye received a placebo. Another twelve animals received 50 μl of the DB in one eye and 50 μl of the BB placebo in the second eye. Animals were euthanized at the appropriate time points and vitreous humor samples were removed surgically. Dexamethasone concentration was determined by high pressure liquid chromatography (HPLC) as described in Example 5.
# [4] = tested on: blood glucose levels; assay: Injected versus transdermal delivery of insulin, blood glucose levels; assay type: in vivo, mouse
# Method: The comparison of injected versus transdermal delivery of several formulation of insulin was studied in a mouse model. One mg of porcine insulin was injected IP (intraperitoneal) into a mouse. […] One mg of porcine insulin mixed with 0.1 ml of tocopherol acetate was applied topically on the skin of a shaved mouse.
# Porcine insulin (20 mg) was mixed in 199 mg/ml of tocopheryl acetate and formed a paste (or gel) which and was applied to the backs of shaved albino mice as follows: Mouse #1 was treated with 39.8 mg of insulin/tocopherol acetate paste, equaling 3.6 mg of insulin; mouse #2 was treated with 75.2 mg of insulin/tocopherol acetate paste, equaling 6.9 mg of insulin. Tail blood glucose levels were determined by Home Diagnostics, Inc. True Track smart system at intervals depicted in FIG. 22.
# [5] = In vivo release of rapamycin from TEAC formulation in vitreous cavity, LC-MS; parameters: species or system NZW rabbits; settings: 5.0 mg rapamycin in 10:90 rapamycin:TEAC mixture
# Method: Five (5.0) mg rapamycin contained in a 10:90 rapamycin:TEAC mixture were injected into the vitreous cavity of one eye in three 4.0-4.5 kg. NZW rabbits. Vitreous sampling was performed in each animal, and the concentration of released Rapamycin determined by liquid chromatography and mass spectrometry.
# [6] = tested on: COX-1 and COC-2 enzymes; settings: acetylation of COX enzymes, in the eye; cited from earlier work
# [7] = cited from earlier work
# [8] = ingested 650 mg 2-ABA, cited from earlier work; for maximum synovial fluid levels / time of maximum synovial fluid levels: human knee
# [9] = cited from earlier work; remark: listed apart in the source
# [10] = cited from earlier work; remark: listed apart in the source
# [11] = 1 mg porcine insulin injected IP
# [12] = 1 mg porcine insulin mixed with 0.1 ml tocopherol acetate, injected IP
compound,measurement,setting,value
"CC1(C)O[C@@H]2C[C@H]3[C@@H]4CCC5=CC(=O)C=C[C@]5(C)[C@@]4(F)[C@@H](O)C[C@]3(C)[C@]2(C(=O)CO)O1 [TA, triamcinolone acetonide]","concentration above which harmful complications (glaucoma, cataracts, cytotoxicity) can arise",[1],exceed 10 μg/ml
O=C(O)c1cn(C2CC2)c2cc(N3CCNCC3)c(F)cc2c1=O [ciprofloxacin],duration of release,[2],sixty
C[C@@H]1C[C@H]2[C@@H]3CCC4=CC(=O)C=C[C@]4(C)[C@@]3(F)[C@@H](O)C[C@]2(C)[C@@]1(O)C(=O)CO [dexamethasone],mean vitreous level of dexamethasone,"[3]; 25 μl injection, over a sixty day period",approximately 4.0 μg/ml
same,mean vitreous level of dexamethasone,"[3]; 50 μl, over a three-month period",approximately 8.0 μg/ml
same,mean concentration of released dexamethasone in vitreous humor,"[3]; high dose: 50 μl 25% DB (12 mg dexamethasone), Day 7 to Day 90",5560 ng/mL
same,mean level of dexamethasone in vitreous humor,"[3]; low dose: 25 μl 25% DB (6 mg dexamethasone), Day 7 to Day 60",2800 ng/mL
same,concentration at 60 day,"[3]; rabbit, vitreous humor, other: injected into the posterior segment of the eye, 6 mg, low dose: 25 μl 25% DB, end of the Day 7 to Day 60 period, read-out: mean level of dexamethasone in vitreous humor, declined to",800 ng/mL
same,concentration at 90 day,"[3]; rabbit, vitreous humor, other: injected into the posterior segment of the eye, 12 mg, high dose: 50 μl 25% DB, by Day 90, read-out: mean level of dexamethasone in vitreous humor",1850 ng/mL
porcine insulin: porcine insulin,recovery from hypoglycemia,[4]; [11],never recovered
same,time to precipitous drop in glucose level,[4]; [11],one-half
same,recovery from hypoglycemia,[4]; [12],did not recover
same,time over which perceptible drop in glucose level was seen,[4]; [12],up to 3 hours
same,time of lowest glucose level,"[4]; 1 mg porcine insulin mixed with 0.1 ml tocopherol acetate, topically on shaved skin",5.5 h
same,slow recovery to pre-treatment glucose levels after,[4]; transdermal insulin with tocopherol acetate,24 to 48 h
"CO[C@H]1C[C@@H]2CC[C@@H](C)[C@@](O)(O2)C(=O)C(=O)N2CCCC[C@H]2C(=O)O[C@H]([C@H](C)C[C@@H]2CC[C@@H](O)[C@H](OC)C2)CC(=O)[C@H](C)/C=C(\C)[C@@H](O)[C@@H](OC)C(=O)[C@H](C)C[C@H](C)/C=C/C=C/C=C/1C [Rapamycin, rapamycin]",duration of release of Rapamycin,[5],over five
"CC(=O)Oc1ccccc1C(=O)O [2-ABA, 2-acetyloxybenzoic acid]",ID50,[6],0.9 to 9.0 µg/mL
same,time in which an initial level is halved in the vitreous,[7]; initial level of 4 μg/ml,1.5 to 2 h
same,concentration of 2-ABA/2-HBA in the vitreous,"[7]; rabbit eyes, at plasma levels of about 20-100 μg/ml",5000 to 10000 ng/mL
same,maximum synovial fluid levels,[8],2.5 µg/mL
same,time of maximum synovial fluid levels,[8],19.4 min
same,maximum plasma levels,[8],3.3 µg/mL
same,time of maximum plasma levels,[8],7.7 min
same,time until gone in the blood,[8],75 min
same,combined 2-ABA/2-HBA levels in the plasma,"[9]; ingestion of 0.650-1.3 g 2-ABA, humans",20 to 100 µg/mL
same,fraction hydrolyzed to 2-HBA in the plasma,[9]; within 30 minutes,about 97%
"O=C(O)c1ccccc1O [2-HBA, 2-hydroxy benzoic acid]",2-HBA level,[10]; after 120 hours,5 µg/mL
same,2-HBA level,[10]; in 20 hours,20 µg/mL
same,"2-HBA level, initial burst",[10]; within 6 hours,640 µg/mL
same,maximum synovial fluid levels,[8],14.5 µg/mL
same,time of maximum synovial fluid levels,[8],21.9 min
same,maximum plasma levels,[8],23 µg/mL
same,time of maximum plasma levels,[8],10.9 min
